Calls of active or inactive are those of the source. No cut-off for these calls is given here.
Columns and labels:
[1] = test system: MCF7; test: Antiproliferative activity against human MCF7 cells assessed as inhibition of cell proliferation incubated for 48 hrs by MTT assay; type: functional, cell-based; settings: MCF7, 48 h
[2] = test system: BGC-823; test: Antiproliferative activity against human BGC-823 cells assessed as inhibition of cell proliferation incubated for 48 hrs by MTT assay; type: functional, cell-based; settings: BGC-823, 48 h
[3] = test system: HepG2; test: Antiproliferative activity against human HepG2 cells assessed as inhibition of cell proliferation incubated for 48 hrs by MTT assay; type: functional, cell-based; settings: HepG2, 48 h
[4] = Cytotoxicity against human MCF-10A cells assessed as inhibition of cell proliferation incubated for 48 hrs by MTT assay; type: toxicity, cell-based
[5] = Cytotoxicity against human GES1 cells assessed as inhibition of cell proliferation incubated for 48 hrs by MTT assay; type: toxicity, cell-based
[6] = Cytotoxicity against human L02 cells assessed as inhibition of cell proliferation incubated for 48 hrs by MTT assay; type: toxicity, cell-based
[7] = test system: MGC-803; test: Antiproliferative activity against human MGC-803 cells assessed as inhibition of cell proliferation incubated for 48 hrs by MTT assay; type: functional, cell-based; settings: MGC-803, 48 h
[8] = test system: SGC-7901; test: Antiproliferative activity against human SGC-7901 cells assessed as inhibition of cell proliferation incubated for 48 hrs by MTT assay; type: functional, cell-based; settings: SGC-7901, 48 h
[9] = test system: NCI-N87; test: Antiproliferative activity against human NCI-N87 cells assessed as inhibition of cell proliferation incubated for 48 hrs by MTT assay; type: functional, cell-based; settings: NCI-N87, 48 h
[10] = test system: BGC-823; test: Antiproliferative activity against human BGC-823 cells assessed as inhibition of cell proliferation preincubated with H2O2 for 2 hrs followed by compound addition and measured after 48 hrs by MTT assay; type: functional, cell-based
[11] = Selectivity index, ratio of IC50 for cytotoxicity against human GES1 cells to IC50 for antiproliferative activity against human BGC-823 cells in presence of H2O2; type: toxicity, cell-based; settings: GES1 cells and BGC-823 cells, read-out: Ratio IC50
[12] = test system: BGC-823; test: Induction of ROS generation in human BGC-823 cells assessed as cells with green fluorescence at 1 uM incubated for 24 hrs by DCFH-DA staining based analysis relative to control; type: functional
[13] = test system: BGC-823; test: Induction of apoptosis in human BGC-823 cells assessed as viable cells at 1 uM incubated for 48 hrs by Annexin V-FITC/PI staining based flow cytometric analysis ( Rvb = 90.09 %); type: functional; settings: read-out: Activity
[14] = test system: BGC-823; test: Induction of apoptosis in human BGC-823 cells assessed as early apoptotic cells at 1 uM incubated for 48 hrs by Annexin V-FITC/PI staining based flow cytometric analysis ( Rvb = 1.68 %); type: functional
[15] = test system: BGC-823; test: Induction of apoptosis in human BGC-823 cells assessed as late apoptotic cells at 1 uM incubated for 48 hrs by Annexin V-FITC/PI staining based flow cytometric analysis ( Rvb = 5.61 %); type: functional
[16] = test system: BGC-823; test: Induction of apoptosis in human BGC-823 cells assessed as necrotic cells at 1 uM incubated for 48 hrs by Annexin V-FITC/PI staining based flow cytometric analysis ( Rvb = 1.79 %); type: functional
[17] = test system: BGC-823; test: Antitumor activity against human BGC-823 cells xenografted in BALB/c nude mouse assessed as tumor growth inhibition at 5 mg/kg, ip administered for 21 days relative to control; type: functional; settings: BGC-823, 504 h, time 21 day, read-out: TGI
[18] = Acute toxicity in ip dosed ICR mouse assessed as mortality rate by measuring ratio at 1.91 logarithm of dose relative to total number of mouse; type: organism-based; settings: in vivo
[19] = Acute toxicity in ip dosed ICR mouse assessed as mortality rate by measuring ratio at 1.80 logarithm of dose relative to total number of mouse; type: organism-based; settings: in vivo
[20] = Acute toxicity in ip dosed ICR mouse assessed as mortality rate by measuring ratio at 1.68 logarithm of dose relative to total number of mouse; type: organism-based; settings: in vivo
[21] = Acute toxicity in ip dosed ICR mouse assessed as mortality rate by measuring ratio at 1.57 logarithm of dose relative to total number of mouse; type: organism-based; settings: in vivo
[22] = Acute toxicity in ip dosed ICR mouse assessed as mortality rate by measuring ratio at 2.16 logarithm of dose relative to total number of mouse; type: organism-based; settings: in vivo
[23] = Acute toxicity in ip dosed ICR mouse assessed as mortality rate by measuring ratio at 2.04 logarithm of dose relative to total number of mouse; type: organism-based; settings: in vivo
[24] = Acute toxicity in ip dosed ICR mouse assessed as animal death at 2.03 logarithm of dose; type: organism-based; settings: in vivo
[25] = Acute toxicity in ip dosed ICR mouse assessed as animal death at 1.57 logarithm of dose; type: organism-based; settings: in vivo
[26] = Acute toxicity in ip dosed ICR mouse assessed as animal death at 2.16 logarithm of dose; type: organism-based; settings: in vivo
[27] = Acute toxicity in ip dosed ICR mouse assessed as lethal dose; type: organism-based; settings: in vivo
[28] = Binding affinity to DTT in PBS assessed as UV peak appearance at 288 nm at 360 uM by UV-Vis spectra analysis

SMILES: COc1ccc(/C=C/CC(=O)OCCCOC(=O)[C@]23CCC(C)(C)C[C@H]2[C@H]2C(=O)C=C4[C@@]5(C)C=C(C#N)C(=O)C(C)(C)[C@@H]5CC[C@@]4(C)[C@]2(C)CC3)cc1OCc1ccc(B2OC(C)(C)C(C)(C)O2)cc1
- IC50 [1]: 3.5 µM
- IC50 [2]: 5.5 µM
- IC50 [3]: 3.6 µM
- IC50 at 48 h [4]: 4 µM
- IC50 at 48 h [5]: 6.6 µM
- IC50 at 48 h [6]: 5 µM

SMILES: CC1(C)CC[C@]2(C(=O)OCCCOc3ccc(NC(=O)OCc4ccc(B5OC(C)(C)C(C)(C)O5)cc4)cc3)CC[C@]3(C)[C@H](C(=O)C=C4[C@@]5(C)C=C(C#N)C(=O)C(C)(C)[C@@H]5CC[C@]43C)[C@@H]2C1
- IC50 [1]: 1.1 µM
- IC50 [2]: 1.2 µM
- IC50 [3]: 2.8 µM
- IC50 at 48 h [4]: 1.8 µM
- IC50 at 48 h [5]: 1.5 µM
- IC50 at 48 h [6]: 3.5 µM

SMILES: CC1(C)CC[C@]2(C(=O)OCCOC(=O)c3ccc(OCc4ccc(B5OC(C)(C)C(C)(C)O5)cc4)cc3)CC[C@]3(C)[C@H](C(=O)C=C4[C@@]5(C)C=C(C#N)C(=O)C(C)(C)[C@@H]5CC[C@]43C)[C@@H]2C1
- IC50 [1]: 2.9 µM
- IC50 [2]: 3.8 µM
- IC50 [3]: 3.6 µM
- IC50 at 48 h [4]: 4 µM
- IC50 at 48 h [5]: 4.7 µM
- IC50 at 48 h [6]: 5 µM

SMILES: CC1(C)CC[C@]2(C(=O)OCCCCCOC(=O)c3ccc(OCc4ccc(B5OC(C)(C)C(C)(C)O5)cc4)cc3)CC[C@]3(C)[C@H](C(=O)C=C4[C@@]5(C)C=C(C#N)C(=O)C(C)(C)[C@@H]5CC[C@]43C)[C@@H]2C1
- IC50 [1]: 1.6 µM
- IC50 [2]: 2.1 µM
- IC50 [3]: 2.8 µM
- IC50 at 48 h [4]: 3.1 µM
- IC50 at 48 h [5]: 2.8 µM
- IC50 at 48 h [6]: 3.5 µM

SMILES: CC1(C)CC[C@]2(C(=O)OCCCOC(=O)c3ccc(OCc4ccc(B5OC(C)(C)C(C)(C)O5)cc4)cc3)CC[C@]3(C)[C@H](C(=O)C=C4[C@@]5(C)C=C(C#N)C(=O)C(C)(C)[C@@H]5CC[C@]43C)[C@@H]2C1
- IC50 [1]: 1.5 µM
- IC50 [2]: 2 µM
- IC50 [3]: 3 µM
- IC50 at 48 h [4]: 3.1 µM
- IC50 at 48 h [5]: 2.7 µM
- IC50 at 48 h [6]: 3.6 µM

SMILES: CC1(C)CC[C@]2(C(=O)OCCCOC(=O)C/C=C/c3ccc(OCc4ccc(B5OC(C)(C)C(C)(C)O5)cc4)cc3)CC[C@]3(C)[C@H](C(=O)C=C4[C@@]5(C)C=C(C#N)C(=O)C(C)(C)[C@@H]5CC[C@]43C)[C@@H]2C1
- IC50 [1]: 9.9 µM
- IC50 [2]: 8.7 µM
- IC50 [3]: 6.5 µM
- IC50 at 48 h [4]: 18.3 µM
- IC50 at 48 h [5]: 6.9 µM
- IC50 at 48 h [6]: 3.3 µM

SMILES: CC1(C)CC[C@]2(C(=O)OCCCCCOc3ccc(NC(=O)OCc4ccc(B5OC(C)(C)C(C)(C)O5)cc4)cc3)CC[C@]3(C)[C@H](C(=O)C=C4[C@@]5(C)C=C(C#N)C(=O)C(C)(C)[C@@H]5CC[C@]43C)[C@@H]2C1
- IC50 [1]: 2.7 µM
- IC50 [2]: 1.4 µM
- IC50 [3]: 3.9 µM
- IC50 at 48 h [4]: 5.9 µM
- IC50 at 48 h [5]: 3 µM
- IC50 at 48 h [6]: 4.9 µM
- IC50 [7]: 2.7 µM
- IC50 [8]: 3.1 µM
- IC50 [9]: 1.6 µM
- IC50 [10]: 0.8 µM
- selectivity ratio [11]: 3.75

SMILES: COC(=O)[C@]12CCC(C)(C)C[C@H]1[C@H]1C(=O)C=C3[C@@]4(C)C=C(C#N)C(=O)C(C)(C)[C@@H]4CC[C@@]3(C)[C@]1(C)CC2 [BARDOXOLONE METHYL]
- IC50 [1]: 1.2 µM
- IC50 [2]: 0.5 µM
- IC50 [3]: 0.5 µM
- IC50 at 48 h [4]: 0.8 µM
- IC50 at 48 h [5]: 0.4 µM
- IC50 at 48 h [6]: 0.4 µM
- IC50 [7]: 0.9 µM
- IC50 [8]: 0.6 µM
- IC50 [9]: 0.8 µM
- IC50 [10]: 0.5 µM
- selectivity ratio [11]: 1
- Activity [12]: 97.6%
- viability at 1 µM [13]: 61.3%
- Activity [14]: 6.59%
- Activity [15]: 24.5%
- Activity [16]: 7.6%
- inhibition in vivo at 5 mg/kg [17]: 51.7%
- Ratio [18]: 0.67
- Ratio [19]: 0.6
- Ratio [20]: 0.25
- Ratio [21]: 0
- Ratio [22]: 1
- Ratio [23]: 0.83
- Activity [24]: Toxic
- Activity [25]: Non-Toxic
- Activity [26]: Toxic
- LD50 [27]: 61.7 mg/kg
- Activity [28]: Active

SMILES: COc1cc(C(=O)OCCCCOC(=O)[C@]23CCC(C)(C)C[C@H]2[C@H]2C(=O)C=C4[C@@]5(C)C=C(C#N)C(=O)C(C)(C)[C@@H]5CC[C@@]4(C)[C@]2(C)CC3)cc(OC)c1OCc1ccc(B2OC(C)(C)C(C)(C)O2)cc1
- IC50 [1]: 3.5 µM
- IC50 [2]: 3.5 µM
- IC50 [3]: 5.4 µM
- IC50 at 48 h [4]: 4 µM
- IC50 at 48 h [5]: 4.2 µM
- IC50 at 48 h [6]: 6.1 µM

SMILES: COc1cc(C(=O)OCCCCOC(=O)[C@]23CCC(C)(C)C[C@H]2[C@H]2C(=O)C=C4[C@@]5(C)C=C(C#N)C(=O)C(C)(C)[C@@H]5CC[C@@]4(C)[C@]2(C)CC3)ccc1OCc1ccc(B2OC(C)(C)C(C)(C)O2)cc1
- IC50 [1]: 12.9 µM
- IC50 [2]: 8.3 µM
- IC50 [3]: 15.5 µM
- IC50 at 48 h [4]: 12.4 µM
- IC50 at 48 h [5]: 9.2 µM
- IC50 at 48 h [6]: 15.6 µM

SMILES: CC1(C)CC[C@]2(C(=O)OCCc3ccc(OCc4ccc(B5OC(C)(C)C(C)(C)O5)cc4)cc3)CC[C@]3(C)[C@H](C(=O)C=C4[C@@]5(C)C=C(C#N)C(=O)C(C)(C)[C@@H]5CC[C@]43C)[C@@H]2C1
- IC50 [1]: 1 µM
- IC50 [2]: 0.7 µM
- IC50 [3]: 2 µM
- IC50 at 48 h [4]: 1.7 µM
- IC50 at 48 h [5]: 0.8 µM
- IC50 at 48 h [6]: 2.1 µM

SMILES: CC1(C)CC[C@]2(C(=O)OCCCCCCOC(=O)c3ccc(OCc4ccc(B5OC(C)(C)C(C)(C)O5)cc4)cc3)CC[C@]3(C)[C@H](C(=O)C=C4[C@@]5(C)C=C(C#N)C(=O)C(C)(C)[C@@H]5CC[C@]43C)[C@@H]2C1
- IC50 [1]: 2.4 µM
- IC50 [2]: 3.2 µM
- IC50 [3]: 65 µM
- IC50 at 48 h [4]: 3.3 µM
- IC50 at 48 h [5]: 4.7 µM
- IC50 at 48 h [6]: 6.4 µM

SMILES: COc1cc(/C=C/CC(=O)OCCCOC(=O)[C@]23CCC(C)(C)C[C@H]2[C@H]2C(=O)C=C4[C@@]5(C)C=C(C#N)C(=O)C(C)(C)[C@@H]5CC[C@@]4(C)[C@]2(C)CC3)ccc1OCc1ccc(B2OC(C)(C)C(C)(C)O2)cc1
- IC50 [1]: 29 µM
- IC50 [2]: 2.3 µM
- IC50 [3]: 5.5 µM
- IC50 at 48 h [4]: 2.4 µM
- IC50 at 48 h [5]: 4.2 µM
- IC50 at 48 h [6]: 5.6 µM

SMILES: CC1(C)CC[C@]2(C(=O)OCCCOC(=O)Cc3ccc(OCc4ccc(B5OC(C)(C)C(C)(C)O5)cc4)cc3)CC[C@]3(C)[C@H](C(=O)C=C4[C@@]5(C)C=C(C#N)C(=O)C(C)(C)[C@@H]5CC[C@]43C)[C@@H]2C1
- IC50 [1]: 1.4 µM
- IC50 [2]: 1.6 µM
- IC50 [3]: 2.5 µM
- IC50 at 48 h [4]: 2.5 µM
- IC50 at 48 h [5]: 2.2 µM
- IC50 at 48 h [6]: 4.1 µM

— ChEMBL document CHEMBL5576127, “New CDDO Arylboronate Ester Derivatives with High Selectivity and Low Toxicity” (J Med Chem, 2024)
